Tests used:
[1] = test system: 5'-T8iG4T isoguanine quadruplex, (T8iG4T)4 (DNA, other, 2'-deoxyisoguanine at 9, 10, 11, 12 (written as G)) TTTTTTTTGGGGT; assay: UV-vis titration, Soret band; details: 20 mM KCl; 40 mM Tris-HCl pH 8.0, 1% DMF, 0.05% Triton X-100, 25 °C; highest DNA tested 70 μM
[2] = test system: 5'-T8G4T G-quadruplex, (T8G4T)4 (DNA, G4) TTTTTTTTGGGGT; assay: UV-vis titration, Soret band 404 nm; details: 40 mM Tris-HCl pH 8.0, 1% DMF, 0.05% Triton X-100, 25 °C, 0.5 μM heme
[3] = test system: 5'-T8iG4T isoguanine pentaplex, (T8iG4T)5 (DNA, other, 2'-deoxyisoguanine at 9, 10, 11, 12 (written as G)) TTTTTTTTGGGGT; assay: UV-vis titration, Soret band 404 nm; details: 20 mM NaCl; 40 mM Tris-HCl pH 8.0, 1% DMF, 0.05% Triton X-100, 25 °C; 0.5 μM heme

## C=CC1=C(C)C2=Cc3c(C=C)c(C)c4[n]3[Fe]([Cl])[n]3c(c(C)c(CCC(=O)O)c3=CC3=NC(=C4)C(C)=C3CCC(=O)O)=CC1=N2
[1]
  binding: no
[2]; 20 mM KCl
  Kd: 7.89 ± 0.96 µM
[2]; 20 mM NaCl
  Kd: 3.22 ± 0.43 µM
[3]
  Kd: 1.28 ± 0.05 µM

— PMC4417173 (2015)
